Counter-ions that a name gives are not always drawn.
Key:
PC12 cells = assay: PC12 cell serum withdrawal model, MTS cell survival assay; format: cell-based
Excerpt: Serum withdrawal is a cytotoxic environmental challenge that results in cell death in cultured cell lines as well as in primary cells of various tissue origins, including nerve cells. In particular, pheochromocytoma (PC) 12 cells have been widely employed as an in vitro neuronal cell model for a wide variety of neurodegenerative and cell death related disorders (Muriel, et al, Mitochondrial free calcium levels (Rhod-2 fluorescence) and ultrastructural alterations in neuronally differentiated PC12 cells during ceramide-dependent cell death, J. Comp. Neurol., 2000, 426(2), 297-315; Dermitzaki, et al, Opioids transiently prevent activation of apoptotic mechanisms following short periods of serum withdrawal, J. Neurochem., 2000, 74(3), 960-969; Carlile, et al, Reduced apoptosis after nerve growth factor and serum withdrawal: conversion of tetrameric glyceraldehyde-3-phosphate dehydrogenase to a dimer, Mol. Pharmacol., 2000, 57(1), 2-12). PC12 cells were cultured in sterile media (RPMI 1640) supplemented with 10% heat-inactivated horse serum and 5% fetal bovine serum (FBS). The culture medium also contained Penicillin-Streptomycin-Neomycin antibiotic (50 µg, 50 µg, 100 µg, respectively). Medium was exchanged every other day and the cells were passed in log phase near confluence.
The control cells were cultured in regular media without any treatment. An enantiomer of Formula 7 or Formula 8 (10 µM) was mixed well in the medium and then applied to the cells. For the 2 day assay, an enantiomer of Formula 7 or Formula 8 (10 µM) was only applied to the cells once at the time of serum withdrawal. For the 7 day assay, an enantiomer of Formula 7 or Formula 8 (10. mu.M) was applied to the cells at the time of serum withdrawal and every 48 hr thereafter when cells were changed with fresh new serum-free medium. In the serum withdrawal group, the cells were cultured in serum-free medium with no additional enantiomer of Formula 7 or Formula 8. Cell survival was determined by the 3-(4,5-dimethylthiazol-2-yl)-5-(3-[…])-2-(4-sulfophenyl)-2H-tetrazolium inner salt (MTS) assay at 2 or 7 days after serum withdrawal.
At the end of the experiment, cells were washed with fresh medium and incubated with MTS solution in a humidified 37° C. with 5% CO2 incubator for 1.5 hr. After the incubation period, the cells were immediately analyzed using a Softmax program (Molecular Devices). […] The assay is based on the cellular conversion of the tetrazolium salt, MTS, into a formazan that is soluble in tissue culture medium and measured directly at 490 nm in 96-well assay plates. The absorbance is directly proportional to the number of living cells in culture. The arbitrary absorbance reading in control cells is expressed as 100% survival rate.

[1] = tested on: transient cerebral ischemia middle cerebral artery occlusion (MCAO) rat model; assay: Transient cerebral ischemia middle cerebral artery occlusion (MCAO) rat model, infarct volume; format: in vivo; settings: MK 801 3 mg/kg i.p., N 12
Procedure: The enantiomer of Formula 7 (test compound) was investigated in the transient cerebral ischemia middle cerebral artery occlusion (MCAO) rat model (as described in Nagasawa H. and Kogure K., Stroke, 1989, 20, 1037; and, Zea Longa E., Weinstein P. R., Carlson S, and Cummins R., Stroke, 1989, 20, 84) using male Wistar rats at 10 and 100 mg/kg (i.v.). MK 801 (Dizocilpine maleate; CAS Registry number 77086-22-7, a commercially available neuroprotectant compound) was used as a positive control (3 mg/kg, i.p.).
Rats (n=12) were randomly allocated to one of four experimental groups and were anesthetized. Blood flow from the internal carotid artery, anterior cerebral artery and posterior cerebral artery into the middle cerebral artery was blocked by this procedure. One hour after blockage, animals were treated over a 1 hour period with vehicle (administered i.v. over the one hour period), control (administered as a single i.p. dose at the start of the one hour period) and two doses of the enantiomer of Formula 7 (administered i.v. over the one hour period). Two hours after blockage, reperfusion was performed.
The animals were sacrificed and […] coronal sections of each brain were prepared. One in every forty sections (i.e. every […]) from the front to the occipital cortex was used to quantify the extent of the cerebral lesion. Slides were prepared using sections stained (according to the Nissl procedure) with cresyl violet and were examined under a light microscope.
Regional ischemic surface areas in the coronal sections of individual rats were determined according to the presence of cells with morphological changes. The areas of neuronal injury or infarction were measured and then added. The cortex and striatum volume were calculated for each animal (total ischemic surface area×0.8 mm (thickness)).
The mean volumes (.+−.S.E.M.) for each animal randomly assigned to the four experimental groups were compared using one-way ANOVA (one way ANOVA is a statistical method which compares 3 or more unmatched groups) followed by Dunnett's t-test (both methods incorporated in Statview 512+software, BarinPower, Calabasas, Calif., USA).

| SMILES | 2 Day Survival Rate (PC12 cells; 10 µM applied once at serum withdrawal, MTS assay 2 days after serum withdrawal, control 100, serum-free 49.6) | 7 Day Survival Rate (PC12 cells; 10 µM at serum withdrawal and every 48 hr, MTS assay 7 days after serum withdrawal, control 100, serum-free 23.8) | Mean Infarct Volume ± S.E.M., Striatum ([1]; vehicle 79.4) | Mean Infarct Volume ± S.E.M., Cortex ([1]; vehicle 275.5) | Mean Infarct Volume ± S.E.M., Total Volume ([1]; vehicle 354.9) |
| --- | --- | --- | --- | --- | --- |
| NC(=O)OC[C@H](OC(N)=O)c1ccccc1Cl [Formula 8] | 66.4 ± 5.4^1% | 85.2 ± 0.6^2% |  |  |  |
| C[C@]12N[C@H](Cc3ccccc31)c1ccccc12 [MK 801, Dizocilpine maleate, reference compound] |  |  | 56.1 ± 5.3^2 mm^3 | 95.8 ± 24.5^1 mm^3 | 151.9 ± 28.7^1 mm^3 |

From patent US20090137652A1, “METHODS FOR NEUROPROTECTION” (priority 2005, published 2009)
